Values after ≈ are worked out from the molar mass of the structure shown. Peptide text beside a SMILES is read from it. * marks the point of attachment. C18 diacid = O=C(O)CCCCCCCCCCCCCCCCC(=O)*

These results are taken from patent US9593149B2, “Amylin and calcitonin receptor agonist” (Novo Nordisk A/S, priority 2014, dated 2017).

This series can be described thus: Assay (IV) determination of solubility. The format is physicochemical. The procedure:
Assay (IV)—Determination of Solubility
The mimylin peptide was dissolved in water at ˜500 nmol/ml and mixed 1:1 with a series of buffers (100 mM glycylglycine pH 3.0, 100 mM glycylglycine pH 4.0, 100 mM glycylglycine pH 5.0, 100 mM bistrispropane pH 6.0, 100 mM bistrispropane pH 6.5, 100 mM bistrispropane pH 7.0, 100 mM bistrispropane pH 7.5, 100 mM bistrispropane pH 8.0).

Take `CC(C)C[C@H](NC(=O)CNC(=O)[C@H](CO)NC(=O)[C@H](C)NC(=O)CC[C@H](NC(=O)CCCCCCCCCCCCCCCCCCC(=O)O)C(=O)O)C(=O)N[C@@H](CO)C(=O)N[C@H](C(=O)N[C@@H](C)C(=O)N[C@H](C(=O)N[C@@H](CC(C)C)C(=O)NCC(=O)N[C@@H](CCCNC(=N)N)C(=O)N[C@@H](CC(C)C)C(=O)N[C@@H](CO)C(=O)N[C@@H](CCC(N)=O)C(=O)N[C@@H](CCC(=O)O)C(=O)N[C@@H](CC(C)C)C(=O)N[C@@H](Cc1cnc[nH]1)C(=O)N[C@@H](CCC(=O)O)C(=O)N[C@@H](CC(C)C)C(=O)N[C@@H](CCC(N)=O)C(=O)N[C@H](C(=O)N[C@@H](Cc1ccc(O)cc1)C(=O)N1CCC[C@H]1C(=O)N[C@@H](CCCNC(=N)N)C(=O)N[C@H](C(=O)N[C@@H](CCC(=O)O)C(=O)N[C@H](C(=O)NCC(=O)N[C@@H](CO)C(=O)NCC(=O)N[C@H](C(=O)N[C@@H](Cc1ccc(O)cc1)C(N)=O)[C@@H](C)O)[C@@H](C)O)[C@@H](C)O)[C@@H](C)O)C(C)C)[C@@H](C)O` [compound 118, [N-terminal(C20 diacid-gGlu), des1, 4G, 9V, 15Q, 21Q, 23Y, 30S, 31G, 32T, 33Y]mimylin]: under “pH 3.0”, the Solubility entry is “≧200 μM”. For the same compound, the solubility at 18 h reads like this: (pH 4.0) 2 µM (≈ 7.75 µg/mL); (pH 5.0) 8 µM (≈ 31 µg/mL); (pH 6.0) 17 µM (≈ 65.9 µg/mL); (pH 6.5) 5 µM (≈ 19.4 µg/mL); (pH 7.0) 26 µM (≈ 101 µg/mL); (pH 7.5) 90 µM (≈ 349 µg/mL). Also, under “pH 8.0”, the solubility at 18 h amounted to 173 µM (≈ 671 µg/mL).

For `CC(C)C[C@H](NC(=O)[C@H](CCC(=O)O)NC(=O)[C@H](Cc1cnc[nH]1)NC(=O)[C@H](CC(C)C)NC(=O)[C@H](CCC(=O)O)NC(=O)[C@H](C)NC(=O)[C@H](CO)NC(=O)[C@H](CC(C)C)NC(=O)[C@H](CCCNC(=N)N)NC(=O)CNC(=O)[C@H](CC(C)C)NC(=O)[C@@H](NC(=O)[C@H](C)NC(=O)[C@@H](NC(=O)[C@H](CO)NC(=O)[C@H](CC(C)C)NC(=O)[C@@H]1CCCN1C(=O)[C@@H]1CCCN1C(=O)[C@H](C)NC(=O)[C@H](CCC(=O)O)NC(=O)CCCCCCCCCCCCCCCCC(=O)O)[C@@H](C)O)C(C)C)C(=O)N[C@@H](C)C(=O)N[C@H](C(=O)N[C@@H](CC(C)C)C(=O)N1CCC[C@H]1C(=O)N[C@@H](CCCNC(=N)N)C(=O)N[C@H](C(=O)N[C@@H](CCC(=O)O)C(=O)N[C@H](C(=O)NCC(=O)N1CCC[C@H]1C(=O)N[C@@H](CCC(=O)O)C(=O)N[C@@H](CO)C(=O)N1CCC[C@H]1C(N)=O)[C@@H](C)O)[C@@H](C)O)[C@@H](C)O` [compound 38, [N-terminal(C18 diacid), 3P, 4P, 9V]mimylin] ({C18 diacid}-EAPPLSTAVLGRLSAELHELATLPRTETGPESP-NH2), the Solubility result is on record as “≧200 μM” (pH 3.0); “≧200 μM” (pH 4.0); “≧200 μM” (pH 5.0); “≧200 μM” (pH 6.0); “≧200 μM” (pH 6.5); “≧200 μM” (pH 7.0). Moreover, the Solubility result is reported as “≧200 μM” (pH 7.5) and “≧200 μM” (pH 8.0).
